# Calls of active or inactive are those of the source. No cut-off for these calls is given here.
# Columns and labels:
# [1] = target: von Hippel-Lindau disease tumor suppressor/Phosphatidylinositol 4,5-bisphosphate 3-kinase catalytic subunit beta isoform (Homo sapiens, UniProt P42338+P40337); assay: PROTAC activity at VHL/p110beta in human SU-DHL-6 cells assessed as induction of p110beta degradation incubated for 24 hrs by Western blot analysis; format: cell-based
# [2] = Stability of compound in PBS at pH 7.4 assessed as parent compound remaining measured after 48 hrs by HPLC analysis; format: physicochemical; conditions: read-out: Stability
# [3] = Toxicity in male nude mouse xenografted with human SU-DHL-6 cells assessed as effect on body weight at 2 to 10 mg/kg, ip administered for 21 days; format: organism-based; conditions: in vivo, 504 h, dose 2-10 mg/kg, time 21 day
# [4] = Toxicity in male nude mouse xenografted with human SU-DHL-6 cells assessed as effect on liver morphology at 2 to 10 mg/kg, ip administered for 21 days by H and E staining based analysis; format: organism-based; conditions: in vivo, 504 h, dose 2-10 mg/kg, time 21 day
# SU-DHL-6 [5] = assay: Induction of apoptosis in human SU-DHL-6 cells assessed as viable cells at 1 uM incubated for 24 hrs by Annexin V-FITC/PI staining based flow cytometric analysis (reference value: 92.54 %); format: functional; conditions: read-out: Activity
# SU-DHL-6 [6] = assay: Cell cycle arrest in human SU-DHL-6 cells assessed as increase in G1 phase cells at 0.1 uM incubated for 24 hrs by PI staining based flow cytometric analysis; format: functional
# SU-DHL-6 [7] = assay: Induction of apoptosis in human SU-DHL-6 cells assessed as early apoptotic cells at 1 uM incubated for 24 hrs by Annexin V-FITC/PI staining based flow cytometric analysis (reference value: 2.32 %); format: functional
# SU-DHL-6 [8] = assay: Induction of apoptosis in human SU-DHL-6 cells assessed as late apoptotic cells at 1 uM incubated for 24 hrs by Annexin V-FITC/PI staining based flow cytometric analysis (reference value: 4.75 %); format: functional
# SU-DHL-6 [9] = assay: Induction of apoptosis in human SU-DHL-6 cells assessed as viable cells at 0.01 uM incubated for 24 hrs by Annexin V-FITC/PI staining based flow cytometric analysis (reference value: 92.54 %); format: functional; conditions: read-out: Activity
# SU-DHL-6 [10] = assay: Inhibition of AKT phosphorylation in human SU-DHL-6 cells at 0.1 to 1 uM incubated for 24 hrs by Western blot analysis; format: cell-based; conditions: dose 0.1-1 µM
# [11] = Toxicity in male nude mouse xenografted with human SU-DHL-6 cells assessed as animal death at 2 to 10 mg/kg, ip administered for 21 days; format: organism-based; conditions: in vivo, 504 h, dose 2-10 mg/kg, time 21 day
# [12] = Toxicity in male nude mouse xenografted with human SU-DHL-6 cells assessed as effect on spleen morphology at 2 to 10 mg/kg, ip administered for 21 days by H and E staining based analysis; format: organism-based; conditions: in vivo, 504 h, dose 2-10 mg/kg, time 21 day
# SU-DHL-6 [13] = assay: Antiproliferative activity against human SU-DHL-6 cells assessed as cell growth inhibition incubated for 72 hrs by MTT assay; format: functional
# SU-DHL-6 [14] = assay: Antitumor activity against human SU-DHL-6 cells xenografted in male nude mouse model assessed as tumor growth inhibition at 10 mg/kg, ip administered for 21 days relative to control; format: functional; conditions: SU-DHL-6, 504 h, time 21 day, read-out: TGI
# [15] = target: Phosphatidylinositol 4,5-bisphosphate 3-kinase catalytic subunit alpha isoform (Homo sapiens, UniProt P42336); assay: Inhibition of PI3Kalpha (unknown origin) preincubated for 30 mins followed by ATP addition and measured after 1 hrs by ADP-Glo reagent based analysis
# SU-DHL-6 [16] = assay: Antitumor activity against human SU-DHL-6 cells xenografted in male nude mouse model assessed as tumor growth inhibition at 2 mg/kg, ip administered for 21 days relative to control; format: functional; conditions: SU-DHL-6, 504 h, time 21 day, read-out: TGI
# SU-DHL-6 [17] = assay: Induction of apoptosis in human SU-DHL-6 cells assessed as necrotic cells at 0.01 uM incubated for 24 hrs by Annexin V-FITC/PI staining based flow cytometric analysis (reference value: 0.39 %); format: functional
# Mus musculus = assay: In vivo inhibition of AKT phosphorylation in male nude mouse xenografted with human SU-DHL-6 cells assessed as reduction in p-AKT expression level in tumor administered intraperitoneally for 21 days by Western blot analysis; format: functional, organism-based; conditions: dose 2-10 mg/kg, route ip, time 21.0 day
# [18] = Toxicity in male nude mouse xenografted with human SU-DHL-6 cells assessed as effect on heart morphology at 2 to 10 mg/kg, ip administered for 21 days by H and E staining based analysis; format: organism-based; conditions: in vivo, 504 h, dose 2-10 mg/kg, time 21 day
# [19] = target: von Hippel-Lindau disease tumor suppressor/Phosphatidylinositol 4,5-bisphosphate 3-kinase catalytic subunit alpha isoform (Homo sapiens, UniProt P42336+P40337); assay: PROTAC activity at VHL/p110alpha in human SU-DHL-6 cells assessed as induction of p110alpha degradation incubated for 24 hrs by Western blot analysis; format: cell-based
# SU-DHL-6 [20] = assay: Inhibition of AKT phosphorylation in human SU-DHL-6 cells at 1 to 10000 nM incubated for 24 hrs by Western blot analysis; format: cell-based; conditions: dose 1-10000 nM
# SU-DHL-6 [21] = assay: Induction of apoptosis in human SU-DHL-6 cells assessed as necrotic cells at 0.1 uM incubated for 24 hrs by Annexin V-FITC/PI staining based flow cytometric analysis (reference value: 0.39 %); format: functional
# SU-DHL-6 [22] = assay: Cell cycle arrest in human SU-DHL-6 cells assessed as increase in G1 phase cells incubated for 24 hrs by PI staining based flow cytometric analysis; format: functional; conditions: dose 0.01-1 µM
# SU-DHL-6 [23] = assay: Induction of apoptosis in human SU-DHL-6 cells assessed as late apoptotic cells at 0.01 uM incubated for 24 hrs by Annexin V-FITC/PI staining based flow cytometric analysis (reference value: 4.75 %); format: functional
# SU-DHL-6 [24] = assay: Induction of apoptosis in human SU-DHL-6 cells assessed as viable cells at 0.1 uM incubated for 24 hrs by Annexin V-FITC/PI staining based flow cytometric analysis (reference value: 92.54 %); format: functional; conditions: read-out: Activity
# [25] = target: Phosphatidylinositol 4,5-bisphosphate 3-kinase catalytic subunit beta isoform (Homo sapiens, UniProt P42338); assay: Inhibition of PI3Kbeta (unknown origin) preincubated for 30 mins followed by ATP addition and measured after 1 hrs by ADP-Glo reagent based analysis
# SU-DHL-6 [26] = assay: Induction of apoptosis in human SU-DHL-6 cells assessed as late apoptotic cells at 0.1 uM incubated for 24 hrs by Annexin V-FITC/PI staining based flow cytometric analysis (reference value: 4.75 %); format: functional
# SU-DHL-6 [27] = assay: Induction of apoptosis in human SU-DHL-6 cells assessed as necrotic cells at 1 uM incubated for 24 hrs by Annexin V-FITC/PI staining based flow cytometric analysis (reference value: 0.39 %); format: functional
# SU-DHL-6 [28] = assay: Induction of autophagy in human SU-DHL-6 cells assessed as increase in LC3-II to LC3-I ratio at 1 to 100 nM incubated for 24 hrs by Western blot analysis; format: functional, cell-based; conditions: dose 1-100 nM
# SU-DHL-6 [29] = assay: Induction of apoptosis in human SU-DHL-6 cells assessed as early apoptotic cells at 0.1 uM incubated for 24 hrs by Annexin V-FITC/PI staining based flow cytometric analysis (reference value: 2.32 %); format: functional
# SU-DHL-6 [30] = assay: Induction of apoptosis in human SU-DHL-6 cells assessed as early apoptotic cells at 0.01 uM incubated for 24 hrs by Annexin V-FITC/PI staining based flow cytometric analysis (reference value: 2.32 %); format: functional
# SU-DHL-6 [31] = assay: Antitumor activity against human SU-DHL-6 cells xenografted in male nude mouse model assessed as reduction in Ki67 expression in tumor at 2 to 10 mg/kg, ip administered for 21 days by immunohistochemical analysis; format: functional, organism-based; conditions: dose 2-10 mg/kg, time 21.0 day
# [32] = Toxicity in male nude mouse xenografted with human SU-DHL-6 cells assessed as effect on kidney morphology at 2 to 10 mg/kg, ip administered for 21 days by H and E staining based analysis; format: organism-based; conditions: in vivo, 504 h, dose 2-10 mg/kg, time 21 day
# Pfeiffer = assay: Antiproliferative activity against human Pfeiffer cells assessed as cell growth inhibition incubated for 72 hrs by MTT assay; format: functional
# Sequence of von Hippel-Lindau disease tumor suppressor/Phosphatidylinositol 4,5-bisphosphate 3-kinase catalytic subunit alpha isoform (P42336 whole entry, canonical isoform): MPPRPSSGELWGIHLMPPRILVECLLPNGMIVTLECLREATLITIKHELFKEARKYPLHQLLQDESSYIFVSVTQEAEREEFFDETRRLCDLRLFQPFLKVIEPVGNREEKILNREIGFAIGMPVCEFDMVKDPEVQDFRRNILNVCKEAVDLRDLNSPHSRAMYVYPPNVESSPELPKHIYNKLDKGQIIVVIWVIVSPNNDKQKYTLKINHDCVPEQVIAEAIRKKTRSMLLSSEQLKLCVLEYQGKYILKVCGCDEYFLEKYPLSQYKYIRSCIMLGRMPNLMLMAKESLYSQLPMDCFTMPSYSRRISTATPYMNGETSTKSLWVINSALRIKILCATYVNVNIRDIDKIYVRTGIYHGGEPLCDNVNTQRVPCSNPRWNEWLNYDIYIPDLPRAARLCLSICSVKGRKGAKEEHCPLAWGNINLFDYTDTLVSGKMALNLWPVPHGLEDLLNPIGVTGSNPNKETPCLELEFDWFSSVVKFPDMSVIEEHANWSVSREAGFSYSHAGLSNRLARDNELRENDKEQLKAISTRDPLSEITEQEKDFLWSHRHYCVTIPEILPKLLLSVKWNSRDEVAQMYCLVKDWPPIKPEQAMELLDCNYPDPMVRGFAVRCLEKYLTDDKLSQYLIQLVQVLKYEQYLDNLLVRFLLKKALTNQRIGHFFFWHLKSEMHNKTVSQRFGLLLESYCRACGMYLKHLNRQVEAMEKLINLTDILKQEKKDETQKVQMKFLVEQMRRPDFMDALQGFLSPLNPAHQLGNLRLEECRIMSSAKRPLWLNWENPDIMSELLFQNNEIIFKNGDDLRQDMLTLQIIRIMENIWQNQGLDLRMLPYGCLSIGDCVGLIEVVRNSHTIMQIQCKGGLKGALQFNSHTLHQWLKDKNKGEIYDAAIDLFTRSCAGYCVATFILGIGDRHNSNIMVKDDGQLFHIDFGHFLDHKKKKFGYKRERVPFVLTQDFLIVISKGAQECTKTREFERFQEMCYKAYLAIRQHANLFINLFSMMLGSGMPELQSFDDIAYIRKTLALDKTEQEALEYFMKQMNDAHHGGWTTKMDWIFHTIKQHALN
# Sequence of von Hippel-Lindau disease tumor suppressor/Phosphatidylinositol 4,5-bisphosphate 3-kinase catalytic subunit alpha isoform (P40337 whole entry, canonical isoform): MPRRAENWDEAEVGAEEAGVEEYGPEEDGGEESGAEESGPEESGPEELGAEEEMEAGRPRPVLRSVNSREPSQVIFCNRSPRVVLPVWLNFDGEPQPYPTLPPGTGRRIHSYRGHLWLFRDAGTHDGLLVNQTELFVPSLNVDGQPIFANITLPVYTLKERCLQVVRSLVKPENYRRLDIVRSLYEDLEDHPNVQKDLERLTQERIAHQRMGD
# Sequence of Phosphatidylinositol 4,5-bisphosphate 3-kinase catalytic subunit alpha isoform (P42336 whole entry, canonical isoform): as the sequence (P42336 whole entry, canonical isoform) above
# Sequence of Phosphatidylinositol 4,5-bisphosphate 3-kinase catalytic subunit beta isoform (P42338 whole entry, canonical isoform): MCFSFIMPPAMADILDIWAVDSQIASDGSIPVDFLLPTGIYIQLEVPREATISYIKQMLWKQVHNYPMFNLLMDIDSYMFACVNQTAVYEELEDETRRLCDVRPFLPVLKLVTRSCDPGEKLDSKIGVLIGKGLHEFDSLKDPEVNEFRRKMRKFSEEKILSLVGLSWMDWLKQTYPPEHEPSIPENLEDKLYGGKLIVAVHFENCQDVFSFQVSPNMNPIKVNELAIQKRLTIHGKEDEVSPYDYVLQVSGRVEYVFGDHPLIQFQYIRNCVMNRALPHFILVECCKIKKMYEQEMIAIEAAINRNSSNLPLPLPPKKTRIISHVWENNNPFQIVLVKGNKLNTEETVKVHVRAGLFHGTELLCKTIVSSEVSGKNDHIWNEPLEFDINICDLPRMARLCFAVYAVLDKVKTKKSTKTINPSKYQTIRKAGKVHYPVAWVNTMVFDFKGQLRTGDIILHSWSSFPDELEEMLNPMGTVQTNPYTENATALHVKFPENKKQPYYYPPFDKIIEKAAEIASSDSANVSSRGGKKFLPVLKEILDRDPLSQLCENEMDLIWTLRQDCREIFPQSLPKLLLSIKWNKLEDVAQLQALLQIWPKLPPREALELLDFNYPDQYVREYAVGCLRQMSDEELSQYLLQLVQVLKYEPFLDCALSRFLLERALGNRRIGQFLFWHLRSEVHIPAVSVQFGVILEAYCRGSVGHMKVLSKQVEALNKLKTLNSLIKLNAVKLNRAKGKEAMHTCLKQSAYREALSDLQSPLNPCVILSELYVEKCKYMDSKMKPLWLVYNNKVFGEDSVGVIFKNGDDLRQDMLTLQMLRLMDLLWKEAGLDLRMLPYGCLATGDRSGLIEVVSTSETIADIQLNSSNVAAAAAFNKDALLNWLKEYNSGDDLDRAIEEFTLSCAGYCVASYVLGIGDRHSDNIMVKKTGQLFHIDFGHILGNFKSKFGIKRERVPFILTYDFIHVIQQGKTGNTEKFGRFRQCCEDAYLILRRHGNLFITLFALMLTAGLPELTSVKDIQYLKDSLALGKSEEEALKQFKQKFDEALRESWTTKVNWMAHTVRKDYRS
# Sequence of von Hippel-Lindau disease tumor suppressor/Phosphatidylinositol 4,5-bisphosphate 3-kinase catalytic subunit beta isoform (P42338 whole entry, canonical isoform): as above
# Sequence of von Hippel-Lindau disease tumor suppressor/Phosphatidylinositol 4,5-bisphosphate 3-kinase catalytic subunit beta isoform (P40337 whole entry, canonical isoform): as the sequence (P40337 whole entry, canonical isoform) above
smiles,measurement,setting,value
COc1ncc(-c2ccc3ncnc(N[C@H]4CCN(C(=O)C5CCN(CCCCCCCCCC(=O)N[C@H](C(=O)N6C[C@H](O)C[C@H]6C(=O)N[C@@H](C)c6ccc(-c7scnc7C)cc6)C(C)(C)C)CC5)C4)c3n2)cc1C(=O)Oc1ccccc1,DC50,[1],> 1000 nM
same,remaining at 48 h,[2],> 80%
same,Activity,[3],Non-toxic
same,Activity,[4],Non-toxic
same,viability at 1 µM,SU-DHL-6 [5],33.9%
same,Activity,SU-DHL-6 [6],Active; More Potent Than 10 Um Idelalisib
same,Activity,SU-DHL-6 [7],14.65%
same,Activity,SU-DHL-6 [8],50.74%
same,viability at 0.01 µM,SU-DHL-6 [9],91.7%
same,inhibition,SU-DHL-6 [10],Active
same,Activity,[11],Non-toxic
same,Activity,[12],Non-toxic
same,GI50,SU-DHL-6 [13],170 nM
same,inhibition in vivo at 10 mg/kg,SU-DHL-6 [14],73.3%
same,IC50,[15],589 nM
same,inhibition in vivo at 2 mg/kg,SU-DHL-6 [16],59.1%
same,Activity,SU-DHL-6 [17],0.51%
same,inhibition,Mus musculus,Dose-dependent-effect
same,Activity,[18],Non-toxic
same,DC50,[19],> 1000 nM
same,inhibition,SU-DHL-6 [20],Active
same,Activity,SU-DHL-6 [21],0.65%
same,Activity,SU-DHL-6 [22],Dose-dependent-effect
same,Activity,SU-DHL-6 [23],6.92%
same,viability at 0.1 µM,SU-DHL-6 [24],91.5%
same,IC50,[25],> 10000 nM
same,Activity,SU-DHL-6 [26],7.11%
same,Activity,SU-DHL-6 [27],0.76%
same,Activity,SU-DHL-6 [28],Active
same,Activity,SU-DHL-6 [29],0.75%
same,Activity,SU-DHL-6 [30],0.61%
same,Activity,SU-DHL-6 [31],Active
same,Activity,[32],Non-toxic
same,GI50,Pfeiffer,350 nM
